The supplement of paper PMC10307832

What was measured:
Assay in all cases: relative viability (nuclei count vs DMSO), 5 days (fraction); higher = more cells survive
[1] = compound: CN(C)CC1=CC(=CC=C1)N=C(C2=CC=CC=C2)C3=C(NC4=C3C=CC(=C4)C(=O)N(C)C)O
In short: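 On vehicle-anchored 1536-well plates, lung cancer cell lines held overnight at 37 °C were pinned with five library-drug doses (not always all listed) spaced by √10. With no medium change over 5 days, they were then fixed, permeabilised and Hoechst-stained in one step and imaged at 4×. MetaXpress counted nuclei, and viability is the median across plates of treated-well over vehicle-well nuclei. Acceptance needed control CV below 25% and at least one doubling.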

[2] = compound: CN(C)CC1=CC(=CC=C1)N=C(C2=CC=CC=C2)C3=C(NC4=C3C=CC(=C4)C(=O)N(C)C)O + CC(=O)Nc1cccc(-n2c(=O)n(C3CC3)c(=O)c3c(Nc4ccc(I)cc4F)n(C)c(=O)c(C)c32)c1 [Trametinib] (partner 0.02 µM)
In short: (§1)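 One day after seeding in 1536-well plates, lung cancer cell lines were dosed by pin tool. Dosing was either single-drug or a fixed anchor-drug dose plus five library-drug doses (not always all listed) in √10 steps. After 5 days, nuclei were stained in one fix-and-stain step and counted on 4× images, and relative viability is the nuclei count of treated wells over that of vehicle wells, given as the median of duplicate plates.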

[3] = compound: CN(C)CC1=CC(=CC=C1)N=C(C2=CC=CC=C2)C3=C(NC4=C3C=CC(=C4)C(=O)N(C)C)O + Cc1cc(Nc2cc(N3CCN(C)CC3)nc(Sc3ccc(NC(=O)C4CC4)cc3)n2)n[nH]1 [Tozasertib] (partner 0.1 µM)
In short: as §1

[4] = compound: CN(C)CC1=CC(=CC=C1)N=C(C2=CC=CC=C2)C3=C(NC4=C3C=CC(=C4)C(=O)N(C)C)O + NC(=O)Nc1cc(-c2cccc(F)c2)sc1C(=O)N[C@H]1CCCNC1 [AZD7762] (partner 0.2 µM)
In short: as §1

| Cell Line | relative viability ([1]; 0.08 µM) | relative viability ([1]; 0.253 µM) | relative viability ([1]; 0.8 µM) | relative viability ([1]; 2.53 µM) | relative viability ([1]; 8 µM) | relative viability ([2]; first compound 0.08 µM) | relative viability ([2]; first compound 0.253 µM) | relative viability ([2]; first compound 0.8 µM) | relative viability ([2]; first compound 2.53 µM) | relative viability ([2]; first compound 8 µM) | relative viability ([3]; first compound 0.08 µM) | relative viability ([3]; first compound 0.253 µM) | relative viability ([3]; first compound 0.8 µM) | relative viability ([3]; first compound 2.53 µM) | relative viability ([3]; first compound 8 µM) | relative viability ([4]; first compound 0.08 µM) | relative viability ([4]; first compound 0.253 µM) | relative viability ([4]; first compound 0.8 µM) | relative viability ([4]; first compound 2.53 µM) | relative viability ([4]; first compound 8 µM) |
| --- | --- | --- | --- | --- | --- | --- | --- | --- | --- | --- | --- | --- | --- | --- | --- | --- | --- | --- | --- | --- |
| HARA | 0.953 | 0.946 | 0.742 | 0.986 | 1.08 | 0.715 | 0.632 | 0.622 | 0.59 | 0.84 | 0.11 | 0.125 | 0.0998 | 0.108 | 0.0768 | 0.296 | 0.351 | 0.155 | 0.258 | 0.324 |
| H3255 | 0.942 | 1.02 | 0.889 | 1.02 | 1.04 | 0.64 | 0.642 |  | 0.66 | 0.692 | 0.528 | 0.575 | 0.65 | 0.71 | 0.484 | 1.08 | 0.85 | 0.842 | 0.967 | 0.942 |
| SK-LU-1 | 1.04 | 1.02 | 0.996 | 0.993 | 0.866 | 0.448 | 0.446 | 0.459 | 0.445 | 0.385 | 0.262 | 0.327 | 0.33 | 0.351 | 0.295 |  |  |  |  |  |
| NCI-H1299 | 0.998 | 1.03 | 1.01 | 1.01 | 0.977 |  |  |  |  |  |  |  |  |  |  |  |  |  |  |  |
| NCI-H2228 | 1.04 | 1.06 | 0.874 | 0.879 | 0.789 | 0.625 | 0.417 | 0.376 | 0.457 | 0.421 | 0.221 | 0.332 | 0.265 | 0.228 | 0.232 |  |  |  |  |  |
| NCI-H2023 | 0.966 | 0.905 | 1.01 | 0.789 | 0.79 | 0.639 | 0.557 | 0.556 | 0.545 | 0.471 | 0.333 | 0.342 | 0.291 | 0.307 | 0.343 |  |  |  |  |  |
| NCI-H1650 | 0.967 | 0.961 | 0.982 | 1.04 | 0.909 | 0.69 | 0.569 | 0.63 | 0.604 | 0.601 | 0.352 | 0.498 | 0.421 | 0.405 | 0.343 |  |  |  |  |  |
| NCI-H520 | 0.879 | 0.958 | 1.01 | 0.932 | 0.881 | 0.493 | 0.703 | 0.664 | 0.594 | 0.497 | 0.45 | 0.373 | 0.425 | 0.454 | 0.386 |  |  |  |  |  |
| UMC-11 | 1.05 | 0.934 | 0.98 | 0.924 | 0.957 | 0.836 | 0.674 | 0.716 | 0.576 | 0.742 | 0.202 | 0.192 | 0.216 | 0.183 | 0.216 |  |  |  |  |  |
| Calu-6 | 1.1 | 1.05 | 1.01 | 0.986 | 0.977 |  |  |  |  |  |  |  |  |  |  |  |  |  |  |  |
| SW 1573 | 0.983 | 1.08 | 0.978 | 0.935 | 0.853 | 0.56 | 0.572 | 0.587 | 0.637 | 0.515 | 0.292 | 0.172 | 0.149 | 0.176 | 0.152 |  |  |  |  |  |
| SK-MES-1 | 1 | 0.993 | 0.934 | 0.938 | 0.914 | 0.524 | 0.576 | 0.588 | 0.497 | 0.406 | 0.846 | 0.944 | 0.892 | 0.849 | 0.824 |  |  |  |  |  |
| NCI-H1563 | 1.02 | 1 | 0.905 | 0.861 | 0.783 |  |  |  |  |  |  |  |  |  |  |  |  |  |  |  |
| NCI-H2009 | 1.03 | 0.987 | 1.1 | 0.973 | 0.97 | 0.276 | 0.314 | 0.271 | 0.297 | 0.244 | 0.767 | 0.723 | 0.721 | 0.551 | 0.699 |  |  |  |  |  |
| IA-LM | 0.961 | 0.871 | 1.03 | 1.07 | 1.13 |  |  |  |  |  |  |  |  |  |  |  |  |  |  |  |
| ABC-1 | 1.1 | 1.05 | 0.971 | 0.891 | 0.864 |  |  |  |  |  | 0.198 | 0.173 | 0.15 | 0.179 | 0.171 | 0.805 | 1.11 | 0.81 | 0.903 | 0.676 |
| NCI-H661 | 0.975 | 1.05 | 1.01 | 0.958 | 0.941 | 0.565 | 0.551 | 0.54 | 0.591 | 0.592 | 0.374 | 0.345 | 0.355 | 0.319 | 0.367 |  |  |  |  |  |
| NCI-H1703 | 0.989 | 0.847 | 1.11 | 0.63 | 0.349 |  |  |  |  |  |  |  |  |  |  | 0.128 | 0.126 | 0.119 | 0.133 | 0.0959 |
| COR-L23 | 1.04 | 1.02 | 1.09 | 0.95 | 0.967 | 0.688 | 0.551 | 0.589 | 0.517 | 0.567 | 0.185 | 0.226 | 0.201 | 0.205 | 0.154 |  |  |  |  |  |
| NCI-H1792 | 0.997 | 1.05 | 0.881 | 0.949 | 0.8 | 0.473 | 0.371 | 0.485 | 0.501 | 0.425 |  |  |  |  |  | 0.639 | 0.658 | 0.643 | 0.506 | 0.71 |
| COR-L 105 | 1.04 | 1.03 | 0.926 | 0.928 | 0.787 | 0.508 | 0.447 | 0.381 | 0.492 | 0.398 | 0.372 | 0.369 | 0.336 | 0.346 | 0.361 |  |  |  |  |  |
